Laboratory results: patent US7598234B2, “Steroid derived antibiotics” (Brigham Young University, priority 1998, dated 2009)

What was measured:
Format in all cases: cell-based
[1] = system: Gram-negative bacteria; test: MIC of ester and amide side chain compounds (Table 14); details: strain not given
Description: (§1) Aliquots of 1 mL of the suspension were added to test tubes containing 1 mL TSB and incrementally varied concentrations of cholic acid derivatives and/or erythromycin or novobiocin. In the sensitization experiments, erythromycin or novobiocin were added 15 minutes later than the cholic acid derivatives. The samples were subjected to stationary incubation at 37° C. for 24 hours. Sample turbidity was determined by measuring absorption at 760 nm (HP 8453 UV-Visible Chemstation, Hewlett Packard). Additionally, an alliquot from each of the samples showing no measurable turbidity was subcultured on TSA plates (alliquots were diluted to provide fewer than 300 CFU). Colonies that grew on the subculture after overnight incubation were counted and the number of CFU/mL in the samples were calculated. The calculated values were compared to the number of CFU/mL in the original inoculum.
(§2) Ester and amide side chains: Additional compounds, for example, compounds with amide and ester side chains, were tested.

[2] = system: Gram-negative bacteria; test: Sensitization to erythromycin, ester and amide side chain compounds (Table 14); details: Table 14; strain not given
Description: as §1
(§3) Ability to permeabilize outer membrane: Compounds 11, 106, and 108-114 (FIG. 1) were tested for antibiotic activity. They were also tested for the ability to permeabilize the outer membrane of Gram-negative bacteria, causing sensitization to hydrophobic antibiotics that cannot cross the outer membrane. The permeabilization of the outer membrane was measured using erythromycin and novobiocin.
as §2

[3] = system: Gram-negative bacteria; test: Sensitization to novobiocin, ester and amide side chain compounds (Table 14); details: strain not given
Description: as §1, §3, §2

Row | Structure (SMILES) | MIC [1] | a: concentration of cholic acid derivatives required to lower MIC of erythromycin to 1 μg/ML [2] | b: concentration of cholic acid derivatives required to lower MIC of novobiocin to 1 μg/ML [3]
1 | C[C@H](CCCO)[C@H]1CC[C@H]2[C@@H]3[C@H](NC(=O)CN)C[C@@H]4C[C@H](NC(=O)CN)CC[C@]4(C)[C@H]3C[C@H](NC(=O)CN)[C@]12C [Compound 209a] | >100 µg/mL | 25 µg/mL | 75 µg/mL
2 | C[C@H](CCCO)[C@H]1CC[C@H]2[C@@H]3[C@H](NC(=O)CCN)C[C@@H]4C[C@H](NC(=O)CCN)CC[C@]4(C)[C@H]3C[C@H](NC(=O)CCN)[C@]12C [Compound 209b] | >100 µg/mL | 40 µg/mL | 75 µg/mL
3 | CC(CCCO)C1CCC2C3C(NC(=O)C(N)CCCCN)CC4CC(NC(=O)C(N)CCCCN)CCC4(C)C3CC(NC(=O)C(N)CCCCN)C12C (stereo not drawn) [Compound 209c] | 85 µg/mL | 45 µg/mL | 60 µg/mL
4 | C[C@H](CCCN(C)Cc1ccccc1)[C@H]1CC[C@H]2[C@@H]3[C@H](NC(=O)CN)C[C@@H]4C[C@H](NC(=O)CN)CC[C@]4(C)[C@H]3C[C@H](NC(=O)CN)[C@]12C [Compound 210a] | 80 µg/mL | 6 µg/mL | 18 µg/mL
5 | C[C@H](CCCN(C)Cc1ccccc1)[C@H]1CC[C@H]2[C@@H]3[C@H](NC(=O)CCN)C[C@@H]4C[C@H](NC(=O)CCN)CC[C@]4(C)[C@H]3C[C@H](NC(=O)CCN)[C@]12C [Compound 210b] | 100 µg/mL | 15 µg/mL | 40 µg/mL
